Source: paper PMC6842111 (Neuron, 2019)
Read-outs that look alike come from different tables or passages of the source.

Columns and labels:
[1] = pKa of the bridging nitrogen; assay type: physicochemical; details: positively-charged bridging nitrogen of the bicyclic ring
[2] = test system: human α3β4 receptor; details: ref Tuan et al., 2015; cited from earlier work
[3] = test system: α3β4; details: cited from earlier work
[4] = target: T1, α3β4 receptor (Homo sapiens, UniProt P30926+P32297, DEL362-406/DEL379-429/F412N/I408D/INS413[…]/INS432[…]/L414K/P409L/R410E/R415Y/S416L/S433L/V431D); assay type: binding; details: Fab in large excess (1 μM); Fig. S1C-F
[5] = target: T1, α3β4 receptor; experiment: Functional response to nicotine in presence of Fab; assay type: cell-based; details: Fig. S1B
[6] = ref Eaton et al., 2003, Xiao et al., 1998

Molecule: CN1C2CCCC1CC(Nc1ccccc1Br)C2 (centres unmarked) [AT-1001]
- pKa [1]: 9.35
- affinity to the human α3β4 receptor [2]: sub-nanomolar
- selectivity for α3β4 over α4β2 [2]: ~ 200 fold

Molecule: Clc1ccc(C2CC3CCC2N3)cn1 (centres unmarked) [epibatidine]
- affinity lower for α3β4 than for α4β2 [3, 6]: 10-100 fold

Molecule: CC(=O)OCC[N+](C)(C)C [acetylcholine]
- affinity lower for α3β4 than for α4β2 [3, 6]: 10-100 fold

Molecule: CN1CCC[C@H]1c1cccnc1 [nicotine]
- affinity lower for α3β4 than for α4β2 [3]: 10-100 fold

B1: Fab: Fab fragment of the 4G9 mouse monoclonal antibody (IgG2b, κ) raised against α3β4 (antibody, V domains shown)
VH: QVQLQQSGPELVRPGVSVKISCKGSGYTFTDYALYWVRQSHAKSLEWIGVINPYSGNTNYNQKFKGKATMTVDKSSSTAYMELARLTSDDSAIYYCASGYDGYPYTMDYWGPGASVTVSS
VL: QIVLTQSPAIMSASPGEKVTMTCSASSSMTYMHWYQQKSGTSPKRWIYDTSQLASGVPARFRGSGSGTSFSLTISSMEAEDAATYYCQQWSSNPLTFGGGTKLELK
- effect on ligand binding [4]: small positive effect
- effect on the functional response to nicotine [5]: little to no effect
